Reference: article doi:10.1101/318345v1, “Three enzymes and one substrate; regulation of flux through the glyoxylate shunt in the opportunistic pathogen, Pseudomonas aeruginosa” (biorxiv, 2018)
pKi: −log10 of the molar value.

How the values were obtained:
IDH [1] = biological target: T1, IDH (Pseudomonas aeruginosa, UniProt Q9I0L4); experiment: isocitrate dehydrogenase activity, NADPH at […] nm; type: biochemical; settings: activator at 1 mM, V-type allosteric; 5 mM MgCl2, pH 7.5, 37 °C
T1 construct: full length, 82 kDa; His6-MBP fusion from E. coli DH5alpha, tag cleaved with Factor Xa
T1 sequence (Q9I0L4 1-741): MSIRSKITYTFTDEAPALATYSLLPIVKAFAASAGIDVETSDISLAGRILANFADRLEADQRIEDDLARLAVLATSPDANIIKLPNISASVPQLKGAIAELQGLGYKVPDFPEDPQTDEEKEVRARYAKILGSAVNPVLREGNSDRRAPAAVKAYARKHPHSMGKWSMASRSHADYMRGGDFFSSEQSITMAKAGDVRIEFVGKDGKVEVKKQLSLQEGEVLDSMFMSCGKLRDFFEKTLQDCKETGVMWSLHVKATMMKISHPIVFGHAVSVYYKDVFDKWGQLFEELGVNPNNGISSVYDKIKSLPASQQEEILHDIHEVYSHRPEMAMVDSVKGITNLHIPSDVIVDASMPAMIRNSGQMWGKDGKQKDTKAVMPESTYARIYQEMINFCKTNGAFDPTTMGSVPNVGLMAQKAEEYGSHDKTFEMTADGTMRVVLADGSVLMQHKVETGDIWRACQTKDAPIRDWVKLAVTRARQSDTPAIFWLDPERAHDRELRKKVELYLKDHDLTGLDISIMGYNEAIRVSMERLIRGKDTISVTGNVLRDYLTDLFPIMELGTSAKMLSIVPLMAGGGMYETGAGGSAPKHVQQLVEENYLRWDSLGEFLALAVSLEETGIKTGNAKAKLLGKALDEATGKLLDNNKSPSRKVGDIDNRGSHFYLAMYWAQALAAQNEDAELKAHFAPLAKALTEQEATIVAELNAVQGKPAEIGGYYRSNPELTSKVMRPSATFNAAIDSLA

ICL = biological target: T2, ICL (Pseudomonas aeruginosa, UniProt Q9I0K4); experiment: ICL activity, spectrophotometric; type: biochemical; settings: for Ki': uncompetitive, inhibitor at 1 mM, 37 °C, substrate isocitrate
T2 construct: gene PA2634; full length, 531 residues, 59 kDa; His6-MBP fusion from E. coli DH5alpha, tag cleaved with Factor Xa; tetramer
T2 sequence (Q9I0K4 1-531): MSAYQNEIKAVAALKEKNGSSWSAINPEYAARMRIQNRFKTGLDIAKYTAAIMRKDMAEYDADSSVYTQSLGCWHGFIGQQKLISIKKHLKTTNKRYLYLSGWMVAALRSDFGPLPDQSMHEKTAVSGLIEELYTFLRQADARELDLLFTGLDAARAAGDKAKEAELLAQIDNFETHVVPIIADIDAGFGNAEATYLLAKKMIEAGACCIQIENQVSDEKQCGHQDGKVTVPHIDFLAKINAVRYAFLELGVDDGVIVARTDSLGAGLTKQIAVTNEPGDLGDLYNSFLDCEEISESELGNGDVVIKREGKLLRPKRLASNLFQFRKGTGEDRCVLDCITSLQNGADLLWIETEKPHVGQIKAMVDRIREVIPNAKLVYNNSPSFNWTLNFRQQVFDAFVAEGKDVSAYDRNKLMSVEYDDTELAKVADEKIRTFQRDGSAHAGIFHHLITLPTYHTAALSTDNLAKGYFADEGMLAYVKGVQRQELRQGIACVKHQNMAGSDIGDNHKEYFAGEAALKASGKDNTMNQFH
Text: ICL activity, spectrophotometric on ICL

IDH [2] = biological target: T1, IDH; experiment: X-ray crystal structure, […] Å; type: binding; settings: chain A, with NADP
ICD = biological target: T3, ICD (Pseudomonas aeruginosa, UniProt Q9I0L5); experiment: isocitrate dehydrogenase activity, NADPH at […] nm; type: biochemical
T3 construct: full length, 45 kDa; His6-MBP fusion from E. coli DH5alpha, tag cleaved with Factor Xa; dimer
T3 sequence (Q9I0L5 1-418): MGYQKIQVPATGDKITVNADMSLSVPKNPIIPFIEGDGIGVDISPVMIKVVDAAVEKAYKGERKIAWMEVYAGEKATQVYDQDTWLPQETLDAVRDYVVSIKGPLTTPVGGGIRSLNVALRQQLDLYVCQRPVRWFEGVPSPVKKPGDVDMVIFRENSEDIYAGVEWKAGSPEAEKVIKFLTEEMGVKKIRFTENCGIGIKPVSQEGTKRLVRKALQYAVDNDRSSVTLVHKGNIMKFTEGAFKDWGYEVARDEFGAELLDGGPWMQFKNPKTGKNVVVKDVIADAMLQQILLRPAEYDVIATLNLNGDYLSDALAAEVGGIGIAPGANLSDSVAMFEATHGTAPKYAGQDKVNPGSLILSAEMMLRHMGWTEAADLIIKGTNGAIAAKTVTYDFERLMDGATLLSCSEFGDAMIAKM

AceKPA = biological target: T4, AceKPA (Pseudomonas aeruginosa, UniProt Q9I3W8); experiment: AceK phosphatase coupled to ICD reactivation; type: biochemical; settings: activator of phosphatase at 5 mM; ICD from P. aeruginosa as protein substrate; 1 mM ATP, 2 mM MgCl2, pH 7.0, 37 °C
T4 construct: gene aceK; His6-tagged from pET-19m, tag cleaved with TEV protease
T4 sequence (Q9I3W8 1-577): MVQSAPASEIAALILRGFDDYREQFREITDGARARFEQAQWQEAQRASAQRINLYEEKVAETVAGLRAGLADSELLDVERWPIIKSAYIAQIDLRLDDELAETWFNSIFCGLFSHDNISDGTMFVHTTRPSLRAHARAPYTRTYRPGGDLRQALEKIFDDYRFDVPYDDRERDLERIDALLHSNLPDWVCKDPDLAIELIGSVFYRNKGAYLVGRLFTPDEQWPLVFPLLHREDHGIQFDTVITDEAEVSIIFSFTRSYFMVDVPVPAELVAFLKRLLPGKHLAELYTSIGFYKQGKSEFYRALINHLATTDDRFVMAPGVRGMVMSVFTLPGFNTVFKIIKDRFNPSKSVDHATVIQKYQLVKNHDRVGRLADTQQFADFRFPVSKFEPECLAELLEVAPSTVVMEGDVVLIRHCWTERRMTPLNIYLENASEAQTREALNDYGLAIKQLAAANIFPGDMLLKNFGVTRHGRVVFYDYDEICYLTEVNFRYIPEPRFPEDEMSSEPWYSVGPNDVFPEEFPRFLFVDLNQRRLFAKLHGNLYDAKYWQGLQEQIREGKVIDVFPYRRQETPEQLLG
T4 sequence (Q9I0L5 1-418 partner): T3 sequence (Q9I0L5 1-418)

[3] = text b11 prints a different value (0.6 mM)

For CC(=O)C(=O)O [pyruvate], the “isocitrate dehydrogenase activity, NADPH at 340 nm” value (IDH [1]) was “pyruvate and oxaloacetate were far more potent regulators” and the pKi (ICL) was 2.77.
O=C(O)CO [glycolic acid] showed a pKi (ICL) of 2.74.
With O=C(O)CCC(=O)C(=O)O [α-ketoglutarate] the “X-ray crystal structure, 2.7 Å” value (IDH [2]) was “(designated chain A) contained bound α-ketoglutarate and NADP” and the pKi (ICD) was 3.18.
O=C(O)CC(=O)C(=O)O [oxaloacetate] was tested, and the pKi (ICL) was 2.85.
Work on O=C(O)CC(O)(CC(=O)O)C(=O)O [citrate] yielded a pKi (ICL) of 1.80.
With O=C(O)CC(=O)O [malonic acid] the “Ki'” value (ICL) was 2900 µM.
With CC(C)(COP(=O)(O)OP(=O)(O)OC[C@H]1O[C@@H](n2cnc3c(N)ncnc32)[C@H](O)[C@@H]1OP(=O)(O)O)[C@@H](O)C(=O)NCCC(=O)NCCS [coenzyme A] the pKi (ICL) was 2.41.
For O=C(O)CC[N+](=O)[O-] [nitropropionic acid], the “Ki'” value (ICL; [3]) was 1000 µM.
In the case of O=C(O)C[C@H](O)C(=O)O [malic acid], the pKi (ICL) was 2.36.
With O=C(O)CCC(=O)O [succinate] the “Ki'” value (ICL; [3]) was 900 µM.
With C=C(CC(=O)O)C(=O)O [itaconic acid] the “Ki'” value (ICL; text b11 prints a different value (0.5 mM)) was 900 µM.
O=C(O)/C=C/C(=O)O [fumarate] was tested, and the “AceK phosphatase coupled to ICD reactivation” value (AceKPA) was “fumarate was the most potent activator of the phosphatase in AceKPA”.
